≈ marks a conversion by molar mass, not a printed value.
How the values were obtained:
[1] = system: SK-OV-3 (ovarian cancer) cells; assay: MTT cell growth inhibition, solid tumor cells; type: cell-based, human; conditions: Homo sapiens, SK-OV-3, 72 h, MTT; for IC50: read-out: IC50; for IC90: read-out: IC90
How it was run: (§1)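 Seeding: 6000 cells/well, DMEM high glucose + 10% FBS, 24 h, 37 °C/5% CO2. Compound at graded concentrations, 72 h. Readout MTT (viable cells).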

[2] = system: CaEs-17 (esophageal cancer) cells; assay: MTT cell growth inhibition, solid tumor cells; type: cell-based, human; conditions: Homo sapiens, CaEs17, CaEs-17, 72 h, MTT; for IC50: read-out: IC50; for IC90: read-out: IC90
How it was run: as §1

[3] = system: PC-3 (prostate cancer) cells; assay: MTT cell growth inhibition, solid tumor cells; type: cell-based, human; conditions: Homo sapiens, PC-3, 72 h, MTT; for IC50: read-out: IC50; for IC90: read-out: IC90
How it was run: as §1

[4] = system: PANC-1 (pancreatic cancer) cells; assay: MTT cell growth inhibition, solid tumor cells; type: cell-based, human; conditions: Homo sapiens, PANC-1, 72 h, MTT; for IC50: read-out: IC50; for IC90: read-out: IC90
How it was run: as §1

[5] = system: CNE (nasopharyngeal carcinoma) cells; assay: MTT cell growth inhibition, solid tumor cells; type: cell-based, human; conditions: for IC50 / IC90: Homo sapiens, CNE, 72 h, MTT; for IC50: read-out: IC50; for IC90: read-out: IC90
How it was run: as §1

[6] = system: RPMI 8226 (multiple myeloma) cells; assay: MTT cell growth inhibition, multiple myeloma cells; type: cell-based, human; conditions: for IC50 / IC90: Homo sapiens, RPMI 8226, 72 h, MTT; for IC50: read-out: IC50; for IC90: read-out: IC90
How it was run: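 Viable-cell readout by MTT after 72 h exposure (37° C, 5% CO2) of RPMI 8226 cells to a range of compound concentrations, added one day post-seeding. Cells were seeded at 6000 per well in RPMI-1640 containing 10% FBS.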

[7] = system: H9 (acute lymphoblastic leukemia) cells; assay: MTT cell growth inhibition, leukemia cells; type: cell-based, human; conditions: Homo sapiens, H9, 72 h, MTT; for IC50: read-out: IC50; for IC90: read-out: IC90
How it was run: (§2)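 MTT read-out of viable cells after 72 h compound exposure at 37° C., 5% CO2; 6000 cells/well in RPMI-1640 + 10% FBS, dosed one day after seeding over a range of concentrations.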

[8] = system: Kasumi-1 (acute myeloid leukemia M2 type) cells; assay: MTT cell growth inhibition, leukemia cells; type: cell-based, human; conditions: Homo sapiens, Kasumi-1, 72 h, MTT; for IC50: read-out: IC50; for IC90: read-out: IC90
How it was run: as §2

[9] = system: Jurkat (acute lymphoblastic leukemia) cells; assay: MTT cell growth inhibition, leukemia cells; type: cell-based, human; conditions: Homo sapiens, Jurkat, 72 h, MTT; for IC50: read-out: IC50; for IC90: read-out: IC90
How it was run: as §2

[10] = system: NB4 (acute promyelocytic leukemia) cells; assay: MTT cell growth inhibition, leukemia cells; type: cell-based; conditions: Homo sapiens, NB4, 72 h, MTT; for IC50: read-out: IC50; for IC90: read-out: IC90
How it was run: as §2

[11] = system: K562/ADR (K562adr, drug-resistant chronic myeloid leukemia) cells; assay: MTT cell growth inhibition, leukemia cells; type: cell-based; conditions: Homo sapiens, K562/ADR, 72 h, MTT; for IC50: read-out: IC50; for IC90: read-out: IC90
How it was run: as §2

[12] = system: A549 (human lung cancer) cells; assay: MTT cell growth inhibition, solid tumor cells; type: cell-based; conditions: Homo sapiens, A549, 72 h, MTT; for IC50: read-out: IC50; for IC90: read-out: IC90
How it was run: as §1

[13] = system: MG-63 (osteosarcoma) cells; assay: MTT cell growth inhibition, solid tumor cells; type: cell-based; conditions: Homo sapiens, MG-63, 72 h, MTT; for IC50: read-out: IC50; for IC90: read-out: IC90
How it was run: as §1

[14] = system: RKO (human colon adenocarcinoma) cells; assay: MTT cell growth inhibition, solid tumor cells; type: cell-based; conditions: Homo sapiens, RKO, 72 h, MTT; for IC50: read-out: IC50; for IC90: read-out: IC90
How it was run: as §1

[15] = system: Hep-2 (laryngeal carcinoma) cells; assay: MTT cell growth inhibition, solid tumor cells; type: cell-based; conditions: Homo sapiens, Hep-2, 72 h, MTT; for IC50: read-out: IC50; for IC90: read-out: IC90
How it was run: as §1

[16] = system: U87-MG (malignant glioma) cells; assay: MTT cell growth inhibition, solid tumor cells; type: cell-based; conditions: Homo sapiens, U-87 MG, U87-MG, 72 h, MTT; for IC50: read-out: IC50; for IC90: read-out: IC90
How it was run: as §1

[17] = system: Hep G2 (human liver cancer) cells; assay: MTT cell growth inhibition, solid tumor cells; type: cell-based; conditions: Homo sapiens, HepG2, Hep G2, 72 h, MTT; for IC50: read-out: IC50; for IC90: read-out: IC90
How it was run: as §1

tumor = assay: Antitumor activity compared with fangchinoline, overall statement; type: cell-based; conditions: tumor type not specified
[18] = relative to fangchinoline, Table 2

IC50 [1] [µg/mL]	IC90 [1] [µg/mL]	IC50 [2] [µg/mL]	IC90 [2] [µg/mL]	IC50 [3] [µg/mL]	IC90 [3] [µg/mL]	IC50 [4] [µg/mL]	IC90 [4] [µg/mL]	IC50 [5] [µg/mL]	IC90 [5] [µg/mL]	IC50 [6] [µg/mL]	IC90 [6] [µg/mL]	IC50 [7] [µg/mL]	IC90 [7] [µg/mL]	IC50 [8] [µg/mL]	IC90 [8] [µg/mL]	IC50 [9] [µg/mL]	IC90 [9] [µg/mL]	IC50 [10] [µg/mL]	IC90 [10] [µg/mL]	Structure (SMILES)	further results
4.6 (≈ 5.99 µM)	12.9 (≈ 16.8 µM)	1.82 (≈ 2.37 µM)	7.67 (≈ 9.99 µM)	3.68 (≈ 4.79 µM)	9.36 (≈ 12.2 µM)	5.55 (≈ 7.23 µM)	9 (≈ 11.7 µM)	1.66 (≈ 2.16 µM)	5.24 (≈ 6.82 µM)	0.02 (≈ 0.026 µM)	0.5 (≈ 0.651 µM)	1.3 (≈ 1.69 µM)	3.6 (≈ 4.69 µM)	1.45 (≈ 1.89 µM)	3.63 (≈ 4.73 µM)	1.24 (≈ 1.61 µM)	5.47 (≈ 7.12 µM)	0.99 (≈ 1.29 µM)	2.86 (≈ 3.72 µM)	COc1ccc2cc1Oc1ccc(cc1)C[C@H]1c3cc(c(OC)cc3CCN1C)Oc1c(OCC(O)CN3CCSCC3)c(OC)cc3c1[C@H](C2)N(C)CC3 (stereo partly drawn) [BS-FC-417]	anti-RPMI8226 activity increase over fangchinoline [6, 18]: 2 fold; IC50 [11]: 0.19 µg/mL (≈ 0.247 µM); IC90 [11]: 2.15 µg/mL (≈ 2.8 µM); IC50 [12]: 3.77 µg/mL (≈ 4.91 µM); IC90 [12]: 11.7 µg/mL (≈ 15.2 µM); IC50 [13]: 2 µg/mL (≈ 2.6 µM); IC90 [13]: 3.6 µg/mL (≈ 4.69 µM); IC50 [14]: 1.09 µg/mL (≈ 1.42 µM); IC90 [14]: 2.27 µg/mL (≈ 2.96 µM); IC50 [15]: 2.36 µg/mL (≈ 3.07 µM); IC90 [15]: 6.03 µg/mL (≈ 7.85 µM); IC50 [16]: 1.49 µg/mL (≈ 1.94 µM); IC90 [16]: 4.25 µg/mL (≈ 5.53 µM); IC50 [17]: 1.8 µg/mL (≈ 2.34 µM); IC90 [17]: 5.79 µg/mL (≈ 7.54 µM); antitumor activity compared with that of fangchinoline (tumor): significantly superior
2.36 (≈ 3.04 µM)	11 (≈ 14.2 µM)	0.88 (≈ 1.13 µM)	9.43 (≈ 12.2 µM)	2.72 (≈ 3.51 µM)	6.07 (≈ 7.82 µM)	2.96 (≈ 3.81 µM)	7.01 (≈ 9.03 µM)	0.87 (≈ 1.12 µM)	3.87 (≈ 4.99 µM)	< 0.125	0.25 (≈ 0.322 µM)	1 (≈ 1.29 µM)	2.8 (≈ 3.61 µM)	0.95 (≈ 1.22 µM)	2.55 (≈ 3.29 µM)	0.97 (≈ 1.25 µM)	3.79 (≈ 4.88 µM)	0.61 (≈ 0.786 µM)	1.61 (≈ 2.07 µM)	COc1ccc2cc1Oc1ccc(cc1)C[C@H]1c3cc(c(OC)cc3CCN1C)Oc1c(OCC(O)CN3CCN(C#N)CC3)c(OC)cc3c1[C@H](C2)N(C)CC3 (stereo partly drawn) [BS-FC-421]	anti-CNE activity increase over fangchinoline [5, 18]: ~3 fold; IC50 [11]: 0.21 µg/mL (≈ 0.271 µM); IC90 [11]: 1.43 µg/mL (≈ 1.84 µM); IC50 [12]: 3.78 µg/mL (≈ 4.87 µM); IC90 [12]: 10.2 µg/mL (≈ 13.1 µM); IC50 [13]: 1.6 µg/mL (≈ 2.06 µM); IC90 [13]: 2.4 µg/mL (≈ 3.09 µM); IC50 [14]: 0.61 µg/mL (≈ 0.786 µM); IC90 [14]: 2.33 µg/mL (≈ 3 µM); IC50 [15]: 1.92 µg/mL (≈ 2.47 µM); IC90 [15]: 8.95 µg/mL (≈ 11.5 µM); IC50 [16]: 1.05 µg/mL (≈ 1.35 µM); IC90 [16]: 2.75 µg/mL (≈ 3.54 µM); IC50 [17]: 1.16 µg/mL (≈ 1.49 µM); IC90 [17]: 3.25 µg/mL (≈ 4.19 µM); antitumor activity compared with that of fangchinoline (tumor): significantly superior
